Assay results reported in patent US20260337212A1, “IP4-4,6 SUBSTITUTED DERIVATIVE COMPOUNDS FOR USE IN THE TREATMENT, INHIBITION OF PROGRESSION, AND PREVENTION OF ECTOPIC CALCIFICATION” (SANIFIT THERAPEUTICS, S.A., priority 2022, published 2026).

Legend:
[1] = Rat vitamin D3 model: blood perfusion of posterior limbs by laser doppler perfusion imaging; assay type: in vivo, Sprague Dawley rat; details: FIG. 13
Procedure: Statistical analysis: One-way ANOVA with Fisher's LSD test for post-hoc comparisons. The result of the ANOVA was p<0.0001. (#) indicates significant differences vs sham, (*) indicates significant differences vs vehicle, (§) indicates significant differences vs Compound 27 5 mg/kg (only applies to other Compound 27 doses), p<0.05. N=10-12 animals/group.
The model evaluated the effects of Compound 27 on tissue calcification, blood perfusion, and walking ability in rats for a duration of 13 days. Tissue calcification was induced in groups 2-5 from D1 to D3. Animals induced with calcification were administered placebo or active agent formulations from D1 onwards to assess their effects in preventing calcification. The impact of treatment on tissue calcification, blood perfusion, and walking ability was evaluated. Observations were taken at several points during the treatment from D0 to D13. All animals were weighed every day before treatment. […]
Blood perfusion (BP) was evaluated by laser doppler perfusion imaging applied to the posterior limbs of the animals using a PeriCam PSI Normal Resolution analyzer (Perimed A B, Järfälla, S E). […] The perfusion ratio (i.e., mean of the two legs) was calculated by comparing the baseline and either D4 or D13 readings for each group. In addition, the perfusion ratio was calculated by comparing group 1 and groups 2-5.

[2] = Rat vitamin D3 model: walking ability, forced incremental treadmill test; assay type: in vivo, Sprague Dawley rat
Procedure: FIG. 14 depicts the mean maximum walking distance (±SD) in Sham rats (no VitD3 treatment) and rats treated with vehicle, Compound 27 (5, 15, and 45 mg/kg). Statistical analysis: One-way ANOVA with Fisher's LSD test for post-hoc comparisons. The result of the ANOVA was p<0.0001. (#) indicates significant differences vs. sham, (*) indicates significant differences vs vehicle, (§) indicates significant differences vs Compound 27 5 mg/kg (only applies to other Compound 27 doses), (¥) indicates significant differences vs Compound 27 15 mg/kg (only applies to Compound 27 45 mg/kg), (‡) significant differences vs Compound 27 45 mg/kg, p<0.05.
The model evaluated the effects of Compound 27 on tissue calcification, blood perfusion, and walking ability in rats for a duration of 13 days. Tissue calcification was induced in groups 2-5 from D1 to D3. […] The impact of treatment on tissue calcification, blood perfusion, and walking ability was evaluated. […]
Maximal walking time (MWT) and maximal walking distance (MWD) were assessed by forced incremental treadmill running tests using a two-lane touch screen treadmill device for rats (Cat. No. LE8709TS, Panlab, Harvard Biosciences, Inc., Holliston, MA, US) with a 15% inclination. […]
For group 2, the treadmill assessment started 15 min after dosing. […] MWD (in meters) and MWT (in minutes) were recorded for each animal.

[3] = system: abcc6a−/− zebrafish larvae; test: abcc6a−/− zebrafish model of Pseudoxanthoma elasticum: spinal column hypermineralization (Alizarin Red); assay type: in vivo; details: 3 to 10 dpf
Procedure: FIG. 16 depicts an analysis of hypermineralization using Alizarin Red staining in 10 dpf abcc6a^−/− zebrafish larvae. The larvae were kept in E3-medium (n=20) and E3-medium supplemented with Compound 27 1 mM (n=18) from 3 to 10 dpf.
A stable CRISPR/Cas9 abcc6a^−/− zebrafish model characterized for spinal column hypermineralization was used for assaying the efficacy of Compound 27 in the treatment of Pseudoxanthoma elasticum (PXE; Van Gils M, et al., J Invest Dermatol […]; 138:2333-2342).
Abcc6a^−/− larvae were treated with Compound 27 at different concentrations (i.e., 100 μM, 300 μM, and 1 mM) for 7 days, starting at 3 days post fertilization (dpf), with daily refreshment of the medium containing the solved compounds. On 10 dpf, the larvae were euthanized and stained with Alizarin Red to visualize the spinal column hypermineralization, using a Leica M165 FC microscope (Leica Microsystems GmbH, Wetzlar, DE). Semi-quantification of calcification was done through image processing with ImageJ […] (Rasband W, Research Services Branch, NIH, Bethesda, MD, US).

4,6-O-bis(5-acetamidopentyl)-myo-inositol-1,2,3,5-tetrakis(phosphate) octasodium salt [Compound 27]
Effect on blood perfusion ([1]; 5, 15, 45 mg/kg s.c. daily, D13): dose-response effect from 5 mg/kg
Recovery of posterior limb blood perfusion ([1]; 15 and 45 mg/kg s.c. daily): recovery of posterior limb blood perfusion at doses of 15 and 45 mg/kg
Effect on maximum walking distance ([2]; 5, 15, 45 mg/kg s.c. daily, FIG. 14): dose-response effect from 5 mg/kg
Improvement of walking ability ([2]; 15 and 45 mg/kg s.c. daily, as early as D5 after induction): improves the walking ability of rats administered with vitamin D as early as D5 after the induction of the PAD disease, in a dose-response manner
Reduction of spinal hypermineralization (in words) ([3]; 1 mM in E3-medium, FIG. 16): Significant reduction of spinal hypermineralization
Average reduction of spinal column hypermineralization ([3]; 1 mM in medium): 60%
Physiological calcification and bone formation ([3]; 1 mM in medium): conservation of the physiological calcification and bone formation
Significance (p) of reduced spinal hypermineralization vs untreated ([3]; 1 mM in medium): < 0.001
Relative calcified area ([3]; 1 mM in medium, untreated 35.2): 14.17
